The text below walks through data of PubChem BioAssay AID651650 (Sanford-Burnham Center for Chemical Genomics, 2012).

The source made the active and inactive calls.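 The calls were made as follows: active = mean IC50 below 20 µM in each of the two panels, so potent in both; inactive = the rest.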

Usually IC50 stands for the concentration needed to halve the response being measured.

For the test, the target named is Neuropilin-1 (Homo sapiens) (UniProt O14786). The experiment in a line: blockers of CendR peptide binding to NRP-1 – biochemical, FP and AlphaScreen panel, dose response (AID 651650). The following applies: NRP-1 b1b2 / RPARPAR peptide binding, FP or AlphaScreen. On the technique in general: Alpha assays give light when donor and acceptor beads are brought close together.

Setting [1] is: AlphaScreen, run 1, individual panel run IC50.
The mark [2] stands for this setting: FP, run 1, individual panel run IC50.
[3] abbreviates: FP, run 2, individual panel run IC50.

Sequence of Neuropilin-1 (Homo sapiens) (O14786 whole entry, looked up): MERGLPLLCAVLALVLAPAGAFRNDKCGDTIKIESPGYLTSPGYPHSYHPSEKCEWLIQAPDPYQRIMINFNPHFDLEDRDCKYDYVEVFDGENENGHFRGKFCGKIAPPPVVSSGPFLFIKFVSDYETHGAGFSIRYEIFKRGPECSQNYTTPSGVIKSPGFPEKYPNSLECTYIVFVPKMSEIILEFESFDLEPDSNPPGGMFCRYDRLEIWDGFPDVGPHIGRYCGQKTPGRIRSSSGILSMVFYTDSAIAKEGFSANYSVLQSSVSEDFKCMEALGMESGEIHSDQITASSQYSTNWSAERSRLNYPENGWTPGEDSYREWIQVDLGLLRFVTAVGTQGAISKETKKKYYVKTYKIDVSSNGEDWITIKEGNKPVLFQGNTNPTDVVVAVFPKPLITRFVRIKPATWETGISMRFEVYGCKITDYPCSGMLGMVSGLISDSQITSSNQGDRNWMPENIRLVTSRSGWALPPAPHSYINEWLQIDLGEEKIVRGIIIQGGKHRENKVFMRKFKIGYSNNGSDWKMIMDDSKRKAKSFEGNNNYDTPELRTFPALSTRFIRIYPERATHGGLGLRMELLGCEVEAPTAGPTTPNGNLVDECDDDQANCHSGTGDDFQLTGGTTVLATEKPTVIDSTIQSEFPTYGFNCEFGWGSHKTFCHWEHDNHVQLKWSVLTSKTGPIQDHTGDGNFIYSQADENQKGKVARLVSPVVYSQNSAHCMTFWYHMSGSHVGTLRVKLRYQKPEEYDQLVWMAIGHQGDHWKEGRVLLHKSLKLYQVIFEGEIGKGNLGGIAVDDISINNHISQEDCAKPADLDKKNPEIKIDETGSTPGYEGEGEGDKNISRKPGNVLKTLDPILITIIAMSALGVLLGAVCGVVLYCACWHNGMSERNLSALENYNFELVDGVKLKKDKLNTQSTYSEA

With `CC(=O)C(=Cc1ccc(Cl)cc1)C(=O)c1ccccc1`, the IC50 (AlphaScreen, mean of runs) was > 100 µM (inactive); the IC50 under setting [1] is greater than 100 µM; the IC50 (FP, mean of runs) was > 95 µM (inactive); the IC50 under setting [2] was greater than 95 µM; the IC50 under setting [3] was greater than 95 µM.
Turning to `Fc1cnc(N2CCOCC2)nc1N1CCOCC1`, the IC50 by setting is: (AlphaScreen, mean of runs) > 100 µM (inactive); under setting [1], greater than 100 µM; (FP, mean of runs) > 95 µM (inactive); under setting [2], greater than 95 µM; under setting [3], greater than 95 µM.
With `CN1CCC(=NNC(=O)c2ccco2)CC1`, the IC50 was > 100 µM (inactive) (AlphaScreen, mean of runs); greater than 100 µM under setting [1]; > 95 µM (inactive) (FP, mean of runs); greater than 95 µM under setting [2]; greater than 95 µM under setting [3].
For the compound `COc1cccc(OCC(=O)NNC(=S)Nc2ccc(Cl)cc2Cl)c1`, the IC50 is > 100 µM (inactive) (AlphaScreen, mean of runs); greater than 100 µM under setting [1]; > 95 µM (inactive) (FP, mean of runs); greater than 95 µM under setting [2]; greater than 95 µM under setting [3].
With `COc1cc(Cn2nnc3ccccc32)cc(Br)c1O`, the IC50 by setting is: (AlphaScreen, mean of runs) > 100 µM (inactive); under setting [1], greater than 100 µM; (FP, mean of runs) > 95 µM (inactive); under setting [2], greater than 95 µM; under setting [3], greater than 95 µM.
Take `CN(C(=O)COC(=O)c1nc(-c2ccccc2)n(-c2ccccc2)n1)C1CCS(=O)(=O)C1` (stereo not given): the IC50 is, setting by setting: (AlphaScreen, mean of runs) > 100 µM (inactive); under setting [1], greater than 100 µM; (FP, mean of runs) > 95 µM (inactive); under setting [2], greater than 95 µM; under setting [3], greater than 95 µM.
In the case of `CN(C(=O)COC(=O)c1cnc(Cl)c(Cl)c1)C1CCCCC1`, the IC50 is > 100 µM (inactive) (AlphaScreen, mean of runs); greater than 100 µM under setting [1]; > 95 µM (inactive) (FP, mean of runs); greater than 95 µM under setting [2]; greater than 95 µM under setting [3].
Consider `CC(=O)NCCNc1nc(NC(C)C)nc2ccsc12`, for which the IC50 runs as follows: (AlphaScreen, mean of runs) > 100 µM (inactive); under setting [1], greater than 100 µM; (FP, mean of runs) > 95 µM (inactive); under setting [2], greater than 95 µM; under setting [3], greater than 95 µM.
For the compound `Cc1ccccc1/C=C/c1nc2ccccc2c(=O)n1CCc1ccccc1`, the IC50 reads like this: (AlphaScreen, mean of runs) > 100 µM (inactive); under setting [1], greater than 100 µM; (FP, mean of runs) > 95 µM (inactive); under setting [2], greater than 95 µM; under setting [3], greater than 95 µM.
`CCn1cc(C(=O)N2CCN(C(=O)c3ccco3)CC2)c2cc(OC)c(OC)cc2c1=O`: the IC50 result (AlphaScreen, mean of runs) is “inactive”. Also, the IC50 is, setting by setting: under setting [1], 25.4 µM; (FP, mean of runs) > 95 µM (inactive); under setting [2], greater than 95 µM; under setting [3], greater than 95 µM.
Regarding `CC(=O)C(C(c1ccccc1)N1CCCc2ccccc21)N1CCOCC1` (stereo not given), the IC50 entry (AlphaScreen, mean of runs) was “inactive”. The IC50 by setting is: under setting [1], 72.2 µM; (FP, mean of runs) > 95 µM (inactive); under setting [2], greater than 95 µM; under setting [3], greater than 95 µM.
Take `Cc1ccc2c(c1)C(c1ccncc1)=NNC(c1ccc(F)cc1)=N2`: the IC50 was > 100 µM (inactive) (AlphaScreen, mean of runs); greater than 100 µM under setting [1]; > 95 µM (inactive) (FP, mean of runs); greater than 95 µM under setting [2]; greater than 95 µM under setting [3].
Consider `CC1(C)c2ccccc2C(=O)c2ccccc21`, for which the IC50 (AlphaScreen, mean of runs) was > 100 µM (inactive); the IC50 under setting [1] is greater than 100 µM; the IC50 (FP, mean of runs) was > 95 µM (inactive); the IC50 under setting [2] is greater than 95 µM; the IC50 under setting [3] was greater than 95 µM.
As for `CCN(CC)C(=O)c1cccc(-c2csc(C(NC(C)=O)c3cccc(OC)c3)n2)c1` (stereo not given), the IC50 is, setting by setting: (AlphaScreen, mean of runs) > 100 µM (inactive); under setting [1], greater than 100 µM; (FP, mean of runs) > 95 µM (inactive); under setting [2], greater than 95 µM; under setting [3], greater than 95 µM.
On to `CCc1ccccc1NC(=O)c1ccccc1N1C(=O)C2C3C=CC(C3)C2C1=O` (stereo not given), for which the IC50 entry (AlphaScreen, mean of runs) is “inactive”. Moreover, the IC50 is 96.8 µM under setting [1]; > 95 µM (inactive) (FP, mean of runs); greater than 95 µM under setting [2]; greater than 95 µM under setting [3].
As for `O=C(CSc1nnc(CNC(=O)C23CC4CC(CC(C4)C2)C3)n1-c1ccccc1)Nc1ccc(F)cc1`, the IC50 was > 100 µM (inactive) (AlphaScreen, mean of runs); greater than 100 µM under setting [1]; > 95 µM (inactive) (FP, mean of runs); greater than 95 µM under setting [2]; greater than 95 µM under setting [3].
Consider `Cc1ccnc(N2CCC(C(=O)Nc3ccc4c(c3)OCCO4)CC2)n1`, for which the IC50 (AlphaScreen, mean of runs) was > 100 µM (inactive); the IC50 under setting [1] was greater than 100 µM; the IC50 (FP, mean of runs) is > 95 µM (inactive); the IC50 under setting [2] is greater than 95 µM; the IC50 under setting [3] is greater than 95 µM.
In the case of `COc1ccc(Nc2nc(-c3cccnc3)nc3ccccc23)cn1`, the IC50 result (AlphaScreen, mean of runs) was “inactive”. Further, the IC50 was 54.7 µM under setting [1]; > 95 µM (inactive) (FP, mean of runs); greater than 95 µM under setting [2]; greater than 95 µM under setting [3].
Consider `CC(=O)Nc1ccc2nc3c(=O)n(C)c(=O)n(C)c3nc2c1`, for which, where the note is “AlphaScreen, mean of runs”, the IC50 result is “inactive”. Moreover, the half-inhibitory concentration (IC50) under setting [1] turned out to be 57.6 µM; the IC50 (FP, mean of runs) is > 95 µM (inactive); the IC50 under setting [2] was greater than 95 µM; the IC50 under setting [3] was greater than 95 µM.
Consider `O=C(NCc1ccccc1)C(c1cccnc1)N(C(=O)c1ccccn1)c1ccccc1F` (stereo not given), for which the IC50 (AlphaScreen, mean of runs) was > 100 µM (inactive); the IC50 under setting [1] was greater than 100 µM; the IC50 (FP, mean of runs) is > 95 µM (inactive); the IC50 under setting [2] is greater than 95 µM; the IC50 under setting [3] was greater than 95 µM.
Consider `Cc1ccccc1-n1ncc2c1CC(C)(C)CC2NC(=O)c1ccncc1` (stereo not given), for which the IC50 is, setting by setting: (AlphaScreen, mean of runs) > 100 µM (inactive); under setting [1], greater than 100 µM; (FP, mean of runs) > 95 µM (inactive); under setting [2], greater than 95 µM; under setting [3], greater than 95 µM.
For `Cc1nnc(SC(C)C(=O)Nc2ccc(S(=O)(=O)NC3CCCCC3)cc2)s1` (stereo not given), the IC50 was > 100 µM (inactive) (AlphaScreen, mean of runs); greater than 100 µM under setting [1]; > 95 µM (inactive) (FP, mean of runs); greater than 95 µM under setting [2]; greater than 95 µM under setting [3].
Take `Cc1cccc(C)c1Nc1nnc(SCC(=O)Nc2cc(S(=O)(=O)N3CCCCC3)ccc2Cl)s1`: the IC50 (AlphaScreen, mean of runs) is > 100 µM (inactive); the IC50 under setting [1] is greater than 100 µM; the IC50 (FP, mean of runs) is > 95 µM (inactive); the 50% inhibitory concentration (IC50) under setting [2] is greater than 95 µM; the IC50 under setting [3] is greater than 95 µM.
`O=C1CCCN1CCCNC(=S)Nc1ccc(Cl)cc1Cl`: the IC50 was > 100 µM (inactive) (AlphaScreen, mean of runs); greater than 100 µM under setting [1]; > 95 µM (inactive) (FP, mean of runs); greater than 95 µM under setting [2]; greater than 95 µM under setting [3].
As to `NS(=O)(=O)c1ccc(CNC(=S)NCc2ccc(F)cc2)cc1`, the IC50 (AlphaScreen, mean of runs) is > 100 µM (inactive); the IC50 under setting [1] is greater than 100 µM; the IC50 (FP, mean of runs) was > 95 µM (inactive); the IC50 under setting [2] was greater than 95 µM; the IC50 under setting [3] was greater than 95 µM.
Take `O=C(NCc1ccccc1)c1cccc(S(=O)(=O)N2CCCCC2)c1`: for the setting “AlphaScreen, mean of runs”, the IC50 result was “inactive”. For the same compound, the 50% inhibitory concentration (IC50) by setting is: under setting [1], 39.8 µM; (FP, mean of runs) > 95 µM (inactive); under setting [2], greater than 95 µM; under setting [3], greater than 95 µM.
On to `CC1(C(=O)NCc2cccc3ccccc23)CCN1Cc1cccc2c1OCO2` (stereo not given), for which the IC50 was > 100 µM (inactive) (AlphaScreen, mean of runs); greater than 100 µM under setting [1]; > 95 µM (inactive) (FP, mean of runs); greater than 95 µM under setting [2]; greater than 95 µM under setting [3].
Regarding `COC/C=C/C1=CC2=CC(=O)C(C)(OC(=O)c3cnc4ccccc4n3)C(=O)C2=CN1Cc1ccc(OC)cc1` (stereo not given), the IC50 entry (AlphaScreen, mean of runs) is “inactive”. In addition, the IC50 was 46.4 µM under setting [1]; > 95 µM (inactive) (FP, mean of runs); greater than 95 µM under setting [2]; greater than 95 µM under setting [3].
Turning to `Cc1ccc(NC=C(S(=O)(=O)c2ccccc2)S(=O)(=O)c2ccccc2)cc1`, the IC50 is, setting by setting: (AlphaScreen, mean of runs) > 100 µM (inactive); under setting [1], greater than 100 µM; (FP, mean of runs) > 95 µM (inactive); under setting [2], greater than 95 µM; under setting [3], greater than 95 µM.
Regarding `CCN(CC)C(=O)CSc1nnc(-c2c[nH]c3ccccc23)o1`, the IC50 was > 100 µM (inactive) (AlphaScreen, mean of runs); greater than 100 µM under setting [1]; > 95 µM (inactive) (FP, mean of runs); greater than 95 µM under setting [2]; greater than 95 µM under setting [3].
For the compound `CN(C)CCn1c(=O)n(-c2ccc(F)cc2)c(=O)c2c3c(sc21)CCCCC3`, where the note is “AlphaScreen, mean of runs”, the IC50 result was “inactive”. Besides, the IC50 under setting [1] is 44.2 µM; the IC50 (FP, mean of runs) was > 95 µM (inactive); the concentration for half-maximal inhibition (IC50) under setting [2] is greater than 95 µM; the half-maximal inhibitory concentration (IC50) under setting [3] is greater than 95 µM.
`CC(=O)NC(c1cccc(F)c1)c1nc(-c2cccc(C(F)(F)F)c2)cs1` (stereo not given): the IC50 is, setting by setting: (AlphaScreen, mean of runs) > 100 µM (inactive); under setting [1], greater than 100 µM; (FP, mean of runs) > 95 µM (inactive); under setting [2], greater than 95 µM; under setting [3], greater than 95 µM.
For the compound `CCCS(=O)(=O)N1CCC(C(=O)NC2CCCC(C)C2C)CC1` (stereo not given), the IC50 is, setting by setting: (AlphaScreen, mean of runs) 17.5 µM; under setting [1], 17.5 µM; (FP, mean of runs) > 95 µM (inactive); under setting [2], greater than 95 µM; under setting [3], greater than 95 µM.
Regarding `CCOC(=O)Cn1c(=O)n(Cc2ccco2)c(=O)c2ccc(C(=O)NC3CCCC3)cc21`, where the note is “AlphaScreen, mean of runs”, the IC50 entry is “inactive”. Moreover, the IC50 runs as follows: under setting [1], 63.7 µM; (FP, mean of runs) > 95 µM (inactive); under setting [2], greater than 95 µM; under setting [3], greater than 95 µM.
